Laboratory results from PubChem BioAssay AID1963853 (Molecular Pharmacology Branch, DTP, NCI, 2024).
pIC50: −log10 of the molar value. Where “and” joins values, the source holds several entries; their conditions need not be identical. Identical values can stand only once.

System: 266295-075-R-J1-PDC spheroid viability
Test: Anticancer human tumor 266295-075-R-J1-PDC patient-derived head and neck squamous carcinoma cell line growth inhibition [POLQ]
Details: spheroids with HUVEC and MSC; for viability, T/C: stronger effect = lower value
Description: Multicellular complex tumor spheroid response to Polymerase (POL) inhibitors (novobiocin, ART-558, RP6685) in combination with a variety of drugs and investigational agents in selected tumor cell lines
The POL inhibitors (novobiocin, ART-558, and RP6685) were evaluated both individually and in combination with standard of care and investigational anticancer small molecules within a complex spheroid model of solid tumors. . Complex spheroids include a stromal component modeled by human endothelial cells (HUVEC) and fibroblasts modeled by human mesenchymal stem cells (MSCs). The concentration ranges selected for each drug and investigational agent were based upon clinically achievable concentrations if the clinical Cmax of the agent was known.
Compounds. The drugs and investigational agents: novobiocin (NSC847541), ART-558 (NSC835418), RP-6685 (NSC848927), peposertib (NSC802822), ceralasertib (NSC780249), elimusertib (NSC800525), camonsertib (NSC841442), AZD-1390 (NSC803789), olaparib (NSC753686), talazoparib (NSC767125), rucaparib (NSC756644), sotorasib (NSC818433), MRTX-1133 (NSC836407), SN-38 (NSC673596), topotecan (NSC609699), epotoside (NSC141540), doxorubicin (NSC123127), gemcitabine (NSC613327), 5-fluorouracil (NSC19893), paclitaxel (NSC125973), vemurafenib (NSC761431), MSA-2 (NSC828583), SN-011 (NSC837082), adavosertib (NSC754352), prexasertib (NSC758257), carboplatin (NSC241240) and oxaliplatin (NSC266046), were obtained from the National Cancer Institute (NCI) Developmental Therapeutics Program Chemical Repository (21). The FDA-approved anticancer drug set is available from the Developmental Therapeutics Program at https://dtp.cancer.gov/organization/dscb/obtaining/. […] The stock solutions were prepared in dimethyl sulfoxide (DMSO, Sigma-Aldrich, St. Louis, MO, cat. D2650), except for the platinum compounds which were prepared in saline (Quality Biological, Gaithersburg, MD, cat. 114-055-101), at 800-fold the tested concentration and stored at -70 degrees C prior to their use. All drugs and investigational agents were tested over a range starting from a high concentration at or near the clinical Cmax and decreasing in half-log increments. If the clinical Cmax for an agent had not been determined, the highest concentration tested was 10 microM, except for SN-38, which was tested at a high concentration of 1 microM.
Cell Culture. All cells were maintained in an incubator at 37 degrees C and 5% CO2 with 95% humidity. The PDC lines were cultured according to standard operating procedures established by the NCI PDMR (https://pdmr.cancer.gov). Table 3 of the manuscript, lists the cell lines along with the number of the three cell types plated to form the mct-spheroids and media for tumor cell growth. After thawing, all PDC lines, except 997537-175-T-J1-PDC and 415267-285-R-J2-PDC, were cultured in Matrigel-coated flasks prepared with a working solution of 1X Ham's F-12 nutrient mix, without supplementation (Thermo Fisher Scientific, cat. 11765054), 100 U/mL penicillin-streptomycin (Thermo Fisher Scientific, cat. 15140122), and 2.5% Matrigel (Corning Inc., Corning, NY, cat. 354248) for the first three passages. The two PDC lines 997537-175-T-J1-PDC and 415267-285-R-J2-PDC were cultured on uncoated flasks. The 857933-349-R-J2-PDC line was cultured in 6C/Colon 1B media containing advanced DMEM/F-12 (Thermo Fisher Scientific, cat. 12634028), 10 mM HEPES (Thermo Fisher Scientific, cat. 15630080), 1X GlutaMAX supplement (Thermo Fisher Scientific, cat. 35050061), 0.1 mg/mL primocin (InvivoGen, San Diego, CA, cat. ant-pm-2), 10% defined fetal bovine serum, heat inactivated (HyClone Laboratories Inc., Logan, UT, cat. SH30070.03HI), 50% L-WRN conditioned media (ATCC, cat. CRL-3276), 1.25 mM N-Acetyl-L-cysteine (Sigma-Aldrich, cat. A9165), 10 mM nicotinamide (Sigma-Aldrich, cat. N0636), 1X B-27 supplement (Thermo Fisher Scientific, cat. 17504044), 1X N-2 supplement (Thermo Fisher Scientific, cat. […]

[1] = compound alone, run of 10/31/2023
[2] = compound alone, run of 11/06/2023
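Note: spheroids exposed to compounds for seven days before readout.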

Row | SMILES | viability, T/C (compound 0.0316 µM) | viability, T/C (compound 0.1 µM) | viability, T/C (compound 0.316 µM) | viability, T/C (compound 1 µM) | viability, T/C (compound 3.16 µM) | viability, T/C (compound 10 µM) | pIC50 (curve of compound) | pIC50 [1] | viability, T/C (compound 0.00316 µM) | viability, T/C (compound 0.01 µM) | pIC50 [2] | viability, T/C (compound 0.000316 µM) | viability, T/C (compound 0.001 µM)
1 | CNCc1ccc(-c2[nH]c3cc(F)cc4c3c2CCNC4=O)cc1 | 105% and 77.3% and 89.9% | 102% and 92.1% and 96.7% | 107% and 102% and 87.6% | 91.4% and 94% and 99.2% | 110% and 105% and 106% | 91.8% and 123% and 105% | < 5.00 | – | – | – | – | – | –
2 | COC1C(OC(N)=O)C(O)C(Oc2ccc3c(O)c(NC(=O)c4ccc(O)c(CC=C(C)C)c4)c(=O)oc3c2C)OC1(C)C (stereo unspecified) | 101% [middle of 13 runs] | – | – | 101% [middle of 13 runs] | – | – | – | < 5.00 | – | – | – | – | –
3 | COc1cc(C2c3cc4c(cc3C(OC3OC5COC(C)OC5C(O)C3O)C3COC(=O)C23)OCO4)cc(OC)c1O (stereo unspecified) | 84.2% and 123% and 88.1% | 80.5% and 94.5% and 116% | 92.3% and 110% and 112% | 77.7% and 88% and 98.4% | 79.7% and 84.9% and 93.1% | 72.6% and 84.4% and 82.6% | < 5.00 | – | – | – | – | – | –
4 | COc1cc2cc(C(=O)CCC(=O)O)sc2cc1OC | 96.8% and 81.4% and 99% | 105% and 89.9% and 92.6% | 108% and 91.4% and 97.7% | 101% (2×) and 99.7% | 87.9% and 109% and 115% | 93.1% and 105% and 85.8% | < 5.00 | – | – | – | – | – | –
5 | COc1ccc([C@@H](O)c2cc(-c3ncnc4cc(N5CCOCC5)ccc34)c(F)cc2Cl)nn1 | 96.7% and 96.6% and 100% | 89.4% and 101% and 98% | 84.6% and 83% and 84% | 60.7% and 73.9% and 67.8% | 44.7% and 71.7% and 51.1% | 39.7% and 44.2% and 39.9% | 5.66 and 5.10 and 5.47 | – | – | – | – | – | –
6 | COc1cccc(OCCCN)c1-c1cc(Nc2cnc(C#N)cn2)n[nH]1 | 70.5% and 72.5% and 94.9% | 77.6% and 81.7% and 73.8% | 73.2% and 70% and 74.8% | 85% and 73.7% and 71.7% | – | – | < 6.00 | – | 109% and 97% and 97.8% | 88.7% and 92.5% and 82.9% | – | – | –
7 | COc1cccc2c1C(=O)c1c(O)c3c(c(O)c1C2=O)CC(O)(C(=O)CO)CC3OC1CC(N)C(O)C(C)O1 (stereo unspecified) | 75.4% and 85.8% and 98.2% | 77% and 122% and 101% | 67.3% and 74% and 72.5% | 55.9% and 77.4% and 82.8% | 47.4% and 71.8% and 63.5% | 1.55% and 2.37% and 2.7% | 5.70 and 5.38 and 5.41 | – | – | – | – | – | –
8 | Cc1cccc(N(C)C(=O)C2C(O)CCN2c2nc(C)cc(C(F)(F)F)c2C#N)c1 (stereo unspecified) | – | – | – | – | – | – | – | < 5.00 | – | – | < 5.00 | – | –
9 | Cn1ncnc1[C@H]1c2n[nH]c(=O)c3cc(F)cc(c23)N[C@@H]1c1ccc(F)cc1 | 104% and 112% and 89% | 118% and 101% and 105% | – | – | – | – | < 7.00 | – | 87.1% and 103% and 107% | 102% (2×) and 92.9% | – | 103% and 112% and 99.9% | 100% and 92.9% and 88.8%
10 | Nc1ccc(C#CCN(C(=O)Cc2ncc(C(F)(F)F)cc2C(F)(F)F)c2ccc(F)cc2)nn1 | – | – | 102% [middle of 13 runs] | – | 95.5% [middle of 13 runs] | 96.3% [middle of 13 runs] | – | – | – | – | < 5.00 | – | –
11 | Nc1ccn(C2OC(CO)C(O)C2(F)F)c(=O)n1 (stereo unspecified) | 85.5% and 98.5% and 105% | 81.7% and 117% and 83.4% | 81.2% and 85.9% and 88.4% | 64.9% and 81.8% and 83.7% | 84.6% and 85.2% and 85.7% | 75.2% and 82.7% and 85.4% | < 5.00 | – | – | – | – | – | –
12 | O=C(Nc1ccc(O)c(NS(=O)(=O)c2ccc(F)cc2)c1)c1ccc(-c2ccccc2)cc1 | 119% and 92.8% and 88.2% | 112% and 97.5% and 96.2% | 102% and 96.6% and 99.1% | 123% and 103% and 118% | 153% and 112% and 122% | 114% and 96.1% and 113% | < 5.00 | – | – | – | – | – | –
13 | O=C(c1cc(Cc2n[nH]c(=O)c3ccccc23)ccc1F)N1CCN(C(=O)C2CC2)CC1 | 114% and 79.6% and 101% | 84% and 87.8% and 94.3% | 94.3% and 90.3% and 90.9% | 91.9% and 99.1% and 99.3% | 112% and 105% and 107% | 85.3% and 86.9% and 82.6% | < 5.00 | – | – | – | – | – | –
14 | O=c1[nH]cc(F)c(=O)[nH]1 | 98.7% and 96% and 115% | 89.9% and 91.2% and 95.8% | 86.7% and 97.9% and 89.4% | 89.8% and 116% and 102% | 80.7% and 102% and 94.3% | 89.4% and 89% and 84.3% | < 5.00 | – | – | – | – | – | –
